The source made the active and inactive calls.
Assays:
Format in all cases: functional
[1] = target: Serine/threonine-protein kinase Nek4 (Homo sapiens, UniProt P51957)
[2] = target: Serine/threonine-protein kinase Nek2 (Homo sapiens, UniProt P51955)
[3] = target: Casein kinase I isoform delta (Homo sapiens, UniProt P48730);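 note: measured as one member (CSNK1D) of a kinome panel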
[4] = target: T1, 3-phosphoinositide-dependent protein kinase 1 (Homo sapiens, UniProt O15530);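 note: value comes from the Navigating the Kinome panel, PDPK1 member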
T1 sequence (O15530 whole entry): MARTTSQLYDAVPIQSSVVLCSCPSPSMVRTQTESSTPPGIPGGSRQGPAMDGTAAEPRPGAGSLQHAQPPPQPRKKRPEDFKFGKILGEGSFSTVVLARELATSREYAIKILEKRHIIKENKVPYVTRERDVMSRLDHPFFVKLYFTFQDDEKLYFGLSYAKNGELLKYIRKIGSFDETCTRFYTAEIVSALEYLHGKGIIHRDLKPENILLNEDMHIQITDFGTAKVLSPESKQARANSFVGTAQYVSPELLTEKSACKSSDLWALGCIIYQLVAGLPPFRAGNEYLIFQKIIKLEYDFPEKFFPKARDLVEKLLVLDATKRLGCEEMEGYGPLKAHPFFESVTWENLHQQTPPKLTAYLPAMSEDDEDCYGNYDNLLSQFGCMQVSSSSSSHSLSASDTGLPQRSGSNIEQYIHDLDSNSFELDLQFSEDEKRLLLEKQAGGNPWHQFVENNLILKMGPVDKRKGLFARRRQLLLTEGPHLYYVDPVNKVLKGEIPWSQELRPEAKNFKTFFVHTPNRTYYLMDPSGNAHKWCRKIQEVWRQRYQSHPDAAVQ

[5] = target: BDNF/NT-3 growth factors receptor (Homo sapiens, UniProt Q16620);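 note: NTRK2 measured as one member of a broad kinome-wide kinase profiling panel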
[6] = target: Non-receptor tyrosine-protein kinase TYK2 (Homo sapiens, UniProt P29597)
Sequence of Non-receptor tyrosine-protein kinase TYK2 (P29597 whole entry): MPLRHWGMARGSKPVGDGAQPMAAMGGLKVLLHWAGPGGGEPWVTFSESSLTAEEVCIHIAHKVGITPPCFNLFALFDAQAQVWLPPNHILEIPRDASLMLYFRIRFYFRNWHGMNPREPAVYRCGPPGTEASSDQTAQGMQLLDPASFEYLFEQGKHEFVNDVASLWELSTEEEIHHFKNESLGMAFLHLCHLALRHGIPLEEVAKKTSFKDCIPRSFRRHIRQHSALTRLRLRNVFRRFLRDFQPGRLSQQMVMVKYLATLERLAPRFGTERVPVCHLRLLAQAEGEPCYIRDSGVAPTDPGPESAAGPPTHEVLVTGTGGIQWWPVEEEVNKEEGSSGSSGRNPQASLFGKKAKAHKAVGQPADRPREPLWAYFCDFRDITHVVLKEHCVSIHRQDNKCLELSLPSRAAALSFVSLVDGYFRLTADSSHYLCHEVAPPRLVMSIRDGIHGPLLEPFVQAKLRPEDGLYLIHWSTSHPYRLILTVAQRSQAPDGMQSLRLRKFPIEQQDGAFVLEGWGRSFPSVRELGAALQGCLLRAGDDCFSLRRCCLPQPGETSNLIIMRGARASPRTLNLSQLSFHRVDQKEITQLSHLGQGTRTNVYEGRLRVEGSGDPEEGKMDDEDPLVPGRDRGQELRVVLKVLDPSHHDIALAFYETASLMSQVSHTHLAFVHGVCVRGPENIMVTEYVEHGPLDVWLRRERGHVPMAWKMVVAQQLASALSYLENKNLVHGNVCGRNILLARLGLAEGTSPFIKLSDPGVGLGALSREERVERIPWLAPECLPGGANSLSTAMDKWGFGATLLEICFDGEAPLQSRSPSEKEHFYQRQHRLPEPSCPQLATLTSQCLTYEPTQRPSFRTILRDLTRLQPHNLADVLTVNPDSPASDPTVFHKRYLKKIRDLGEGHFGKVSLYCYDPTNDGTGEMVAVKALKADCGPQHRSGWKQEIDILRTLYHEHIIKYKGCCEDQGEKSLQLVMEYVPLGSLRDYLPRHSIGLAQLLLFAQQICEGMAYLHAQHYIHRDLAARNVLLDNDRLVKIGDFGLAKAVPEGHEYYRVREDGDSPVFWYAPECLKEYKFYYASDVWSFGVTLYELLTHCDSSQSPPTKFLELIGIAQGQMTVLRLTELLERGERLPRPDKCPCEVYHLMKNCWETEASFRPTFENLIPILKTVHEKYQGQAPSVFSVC

[7] = target: T2, Tyrosine-protein kinase receptor TYRO3 (Homo sapiens, UniProt Q06418);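 note: TYRO3 value obtained as one member of a kinome-wide profiling panel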
T2 sequence (Q06418 whole entry): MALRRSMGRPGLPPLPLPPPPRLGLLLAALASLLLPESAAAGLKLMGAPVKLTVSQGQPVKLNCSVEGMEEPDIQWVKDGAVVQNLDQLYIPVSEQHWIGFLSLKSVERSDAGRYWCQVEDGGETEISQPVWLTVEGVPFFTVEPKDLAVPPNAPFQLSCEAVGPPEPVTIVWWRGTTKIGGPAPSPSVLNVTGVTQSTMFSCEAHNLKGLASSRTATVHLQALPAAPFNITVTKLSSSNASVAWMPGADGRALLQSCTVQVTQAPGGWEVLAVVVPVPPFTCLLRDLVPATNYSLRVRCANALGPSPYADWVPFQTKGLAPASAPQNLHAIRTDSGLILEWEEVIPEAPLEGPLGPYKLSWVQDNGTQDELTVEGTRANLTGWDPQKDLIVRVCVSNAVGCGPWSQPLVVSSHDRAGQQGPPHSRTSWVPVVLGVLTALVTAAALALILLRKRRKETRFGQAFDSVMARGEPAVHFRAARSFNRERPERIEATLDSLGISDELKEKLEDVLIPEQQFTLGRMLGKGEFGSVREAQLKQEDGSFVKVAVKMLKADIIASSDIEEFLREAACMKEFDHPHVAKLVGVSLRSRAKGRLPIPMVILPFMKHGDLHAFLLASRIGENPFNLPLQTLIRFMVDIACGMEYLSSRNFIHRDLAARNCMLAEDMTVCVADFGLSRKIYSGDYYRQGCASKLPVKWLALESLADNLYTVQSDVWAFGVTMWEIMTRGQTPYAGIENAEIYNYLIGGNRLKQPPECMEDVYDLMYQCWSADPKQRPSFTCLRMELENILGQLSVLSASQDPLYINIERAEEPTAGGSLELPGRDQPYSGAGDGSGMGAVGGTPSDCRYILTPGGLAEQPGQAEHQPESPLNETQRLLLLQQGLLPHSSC

[8] = target: MAP kinase-interacting serine/threonine-protein kinase 2 (Homo sapiens, UniProt Q9HBH9)
[9] = target: Serine/threonine-protein kinase Chk2 (Homo sapiens, UniProt O96017);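 note: CHEK2 entry within a kinome-wide screening panel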
Sequence of Serine/threonine-protein kinase Chk2 (O96017 whole entry): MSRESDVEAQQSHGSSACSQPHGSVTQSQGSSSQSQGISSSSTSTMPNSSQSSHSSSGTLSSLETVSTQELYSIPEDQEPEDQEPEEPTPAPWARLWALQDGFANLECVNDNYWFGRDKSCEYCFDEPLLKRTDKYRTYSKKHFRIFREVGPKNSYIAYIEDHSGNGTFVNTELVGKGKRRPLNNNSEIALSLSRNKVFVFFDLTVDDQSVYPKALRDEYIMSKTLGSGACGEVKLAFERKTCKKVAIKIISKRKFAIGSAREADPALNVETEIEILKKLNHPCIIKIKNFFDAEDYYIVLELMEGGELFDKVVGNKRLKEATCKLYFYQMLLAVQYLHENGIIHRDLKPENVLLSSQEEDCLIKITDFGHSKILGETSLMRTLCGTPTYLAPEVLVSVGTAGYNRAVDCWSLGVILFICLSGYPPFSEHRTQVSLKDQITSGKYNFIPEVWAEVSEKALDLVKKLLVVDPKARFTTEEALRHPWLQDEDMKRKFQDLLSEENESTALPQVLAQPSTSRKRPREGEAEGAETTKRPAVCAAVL

[10] = target: Serine/threonine-protein kinase PLK1 (Homo sapiens, UniProt P53350);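 note: PLK1 measured as one member of a kinome-wide profiling panel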
[11] = target: Calcium/calmodulin-dependent protein kinase type 1 (Homo sapiens, UniProt Q14012)
Sequence of Calcium/calmodulin-dependent protein kinase type 1 (Q14012 whole entry): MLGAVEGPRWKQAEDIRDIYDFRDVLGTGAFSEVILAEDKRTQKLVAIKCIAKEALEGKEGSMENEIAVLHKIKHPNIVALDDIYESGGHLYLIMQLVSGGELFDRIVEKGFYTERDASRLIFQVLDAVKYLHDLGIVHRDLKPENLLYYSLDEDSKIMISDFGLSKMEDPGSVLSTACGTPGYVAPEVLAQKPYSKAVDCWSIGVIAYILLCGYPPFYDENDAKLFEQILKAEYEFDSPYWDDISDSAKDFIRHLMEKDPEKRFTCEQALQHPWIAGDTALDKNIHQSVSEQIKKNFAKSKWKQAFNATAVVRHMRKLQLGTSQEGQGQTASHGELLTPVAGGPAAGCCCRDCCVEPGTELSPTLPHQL

[12] = target: T3, Interleukin-1 receptor-associated kinase 4 (Homo sapiens, UniProt Q9NWZ3)
T3 sequence (Q9NWZ3 whole entry): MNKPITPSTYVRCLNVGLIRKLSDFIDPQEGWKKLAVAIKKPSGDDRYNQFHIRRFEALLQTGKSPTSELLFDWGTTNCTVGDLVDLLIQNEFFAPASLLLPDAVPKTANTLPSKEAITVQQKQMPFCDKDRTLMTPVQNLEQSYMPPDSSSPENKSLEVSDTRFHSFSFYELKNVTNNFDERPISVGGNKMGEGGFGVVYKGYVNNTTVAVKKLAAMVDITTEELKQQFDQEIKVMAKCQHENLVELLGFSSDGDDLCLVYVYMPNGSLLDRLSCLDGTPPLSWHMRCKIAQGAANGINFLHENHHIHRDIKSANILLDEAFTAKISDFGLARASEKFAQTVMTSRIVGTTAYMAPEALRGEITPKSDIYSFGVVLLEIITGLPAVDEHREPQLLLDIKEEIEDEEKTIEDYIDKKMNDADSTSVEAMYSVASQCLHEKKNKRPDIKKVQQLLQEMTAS

[13] = target: Mitogen-activated protein kinase 1 (Homo sapiens, UniProt P28482)
Sequence of Mitogen-activated protein kinase 1 (P28482 whole entry): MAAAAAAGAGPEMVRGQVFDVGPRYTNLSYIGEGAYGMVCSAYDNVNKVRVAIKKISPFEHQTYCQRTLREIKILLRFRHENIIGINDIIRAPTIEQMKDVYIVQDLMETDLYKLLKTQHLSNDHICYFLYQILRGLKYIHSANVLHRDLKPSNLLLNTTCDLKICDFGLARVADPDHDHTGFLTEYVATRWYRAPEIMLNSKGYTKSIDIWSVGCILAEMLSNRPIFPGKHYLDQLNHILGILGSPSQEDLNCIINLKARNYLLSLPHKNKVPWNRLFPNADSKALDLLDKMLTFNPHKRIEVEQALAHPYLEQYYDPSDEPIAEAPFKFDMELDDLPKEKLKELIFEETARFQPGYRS

[14] = target: Casein kinase II subunit alpha (Homo sapiens, UniProt P68400)
Sequence of Casein kinase II subunit alpha (P68400 whole entry): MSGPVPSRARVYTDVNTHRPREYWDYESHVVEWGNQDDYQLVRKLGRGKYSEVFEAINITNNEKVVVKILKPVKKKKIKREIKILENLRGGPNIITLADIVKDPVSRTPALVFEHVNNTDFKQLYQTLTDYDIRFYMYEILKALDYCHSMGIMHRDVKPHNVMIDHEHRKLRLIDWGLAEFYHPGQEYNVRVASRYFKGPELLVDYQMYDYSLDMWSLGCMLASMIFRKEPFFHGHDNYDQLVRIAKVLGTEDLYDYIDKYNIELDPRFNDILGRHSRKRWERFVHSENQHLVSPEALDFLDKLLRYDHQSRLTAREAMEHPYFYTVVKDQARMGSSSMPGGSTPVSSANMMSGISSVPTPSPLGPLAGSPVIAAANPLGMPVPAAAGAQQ

[15] = target: 5'-AMP-activated protein kinase catalytic subunit alpha-1 (Homo sapiens, UniProt Q13131)
[16] = target: Dual specificity tyrosine-phosphorylation-regulated kinase 1A (Homo sapiens, UniProt Q13627);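 note: measured against DYRK1A as one member of a broad kinome profiling panel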
[17] = target: Testis-specific serine/threonine-protein kinase 2 (Homo sapiens, UniProt Q96PF2);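 note: part of the Navigating the Kinome panel, target entry STK22B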
[18] = target: cAMP-dependent protein kinase catalytic subunit alpha (Homo sapiens, UniProt P17612)
[19] = target: MAP/microtubule affinity-regulating kinase 3 (Homo sapiens, UniProt P27448);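 note: MARK3 affinity measured as one member of a kinome panel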
Sequence of MAP/microtubule affinity-regulating kinase 3 (P27448 whole entry): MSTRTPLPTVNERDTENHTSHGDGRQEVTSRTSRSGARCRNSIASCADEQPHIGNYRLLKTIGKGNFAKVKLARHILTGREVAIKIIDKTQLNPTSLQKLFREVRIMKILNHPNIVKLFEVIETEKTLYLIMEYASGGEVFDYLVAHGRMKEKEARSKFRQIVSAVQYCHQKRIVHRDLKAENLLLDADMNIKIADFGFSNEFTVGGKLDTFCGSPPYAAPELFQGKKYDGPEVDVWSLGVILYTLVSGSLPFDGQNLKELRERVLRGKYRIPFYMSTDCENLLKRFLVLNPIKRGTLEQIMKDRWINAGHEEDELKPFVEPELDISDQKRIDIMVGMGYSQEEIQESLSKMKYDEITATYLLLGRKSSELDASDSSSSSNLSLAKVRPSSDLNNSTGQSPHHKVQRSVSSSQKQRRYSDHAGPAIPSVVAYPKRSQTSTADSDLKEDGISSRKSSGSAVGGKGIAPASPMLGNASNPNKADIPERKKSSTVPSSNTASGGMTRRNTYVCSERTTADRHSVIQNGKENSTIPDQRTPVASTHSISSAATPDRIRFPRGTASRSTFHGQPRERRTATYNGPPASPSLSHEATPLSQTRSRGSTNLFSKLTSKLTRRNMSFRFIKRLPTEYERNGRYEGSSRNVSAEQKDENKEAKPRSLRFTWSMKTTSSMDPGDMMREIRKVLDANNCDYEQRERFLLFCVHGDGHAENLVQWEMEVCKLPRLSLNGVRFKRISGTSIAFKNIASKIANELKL

Sequence of Serine/threonine-protein kinase Nek4 (P51957 whole entry): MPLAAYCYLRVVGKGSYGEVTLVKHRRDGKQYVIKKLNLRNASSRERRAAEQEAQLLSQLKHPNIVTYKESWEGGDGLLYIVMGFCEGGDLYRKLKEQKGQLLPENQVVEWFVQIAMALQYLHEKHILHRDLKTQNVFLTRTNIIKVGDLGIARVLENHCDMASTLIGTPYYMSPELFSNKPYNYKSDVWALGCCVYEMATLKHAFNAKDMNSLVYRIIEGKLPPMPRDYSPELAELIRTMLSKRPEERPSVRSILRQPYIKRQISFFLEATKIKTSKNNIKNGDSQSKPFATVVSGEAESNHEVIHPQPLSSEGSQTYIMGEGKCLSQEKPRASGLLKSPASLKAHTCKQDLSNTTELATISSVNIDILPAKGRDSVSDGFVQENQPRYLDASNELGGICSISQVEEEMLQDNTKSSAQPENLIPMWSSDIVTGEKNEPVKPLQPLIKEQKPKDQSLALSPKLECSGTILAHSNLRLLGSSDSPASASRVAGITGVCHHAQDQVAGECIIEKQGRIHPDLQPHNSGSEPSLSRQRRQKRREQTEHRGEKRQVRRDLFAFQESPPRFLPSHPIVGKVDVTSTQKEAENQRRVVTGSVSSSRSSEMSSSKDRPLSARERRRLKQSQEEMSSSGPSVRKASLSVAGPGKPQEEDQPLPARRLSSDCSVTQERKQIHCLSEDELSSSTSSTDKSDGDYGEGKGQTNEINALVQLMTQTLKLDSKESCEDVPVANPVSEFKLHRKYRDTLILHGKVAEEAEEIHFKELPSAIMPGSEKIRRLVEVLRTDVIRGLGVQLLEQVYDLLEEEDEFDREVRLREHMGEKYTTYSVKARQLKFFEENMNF
Sequence of Casein kinase I isoform delta (P48730 whole entry, canonical isoform): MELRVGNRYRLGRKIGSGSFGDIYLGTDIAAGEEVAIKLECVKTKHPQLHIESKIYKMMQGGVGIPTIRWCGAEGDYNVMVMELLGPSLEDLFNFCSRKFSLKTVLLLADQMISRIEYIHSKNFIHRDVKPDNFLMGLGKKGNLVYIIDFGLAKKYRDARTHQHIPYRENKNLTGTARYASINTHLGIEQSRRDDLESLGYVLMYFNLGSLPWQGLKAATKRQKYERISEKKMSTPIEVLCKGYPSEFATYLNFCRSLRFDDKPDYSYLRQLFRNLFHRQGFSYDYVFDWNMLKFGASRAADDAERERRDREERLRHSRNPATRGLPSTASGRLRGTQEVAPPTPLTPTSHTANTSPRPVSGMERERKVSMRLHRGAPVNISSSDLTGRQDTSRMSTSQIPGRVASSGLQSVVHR

Row | Ki [1] | Ki [2] | Ki [3] | Ki [4] | Ki [5] | Ki [6] | Ki [7] | Ki [8] | Ki [9] | Ki [10] | Ki [11] | Ki [12] | Ki [13] | Ki [14] | Ki [15] | Ki [16] | Ki [17] | Ki [18] | Ki [19] | Compound | other results
1 | 0.0501 µM (active) | > 10 µM (inactive) | 0.0158 µM (active) | > 3.98 µM (inactive) | > 3.98 µM (inactive) | 0.794 µM (active) | > 2 µM (inactive) | 0.0794 µM (active) | 1.26 µM (active) | > 7.94 µM (inactive) | > 3.98 µM (inactive) | 0.631 µM (active) | 0.0316 µM (active) | 0.2 µM (active) | > 1.58 µM (inactive) | 0.000794 µM (active) | > 1.58 µM (inactive) | 0.398 µM (active) | 0.501 µM (active) | NC(=O)c1cc(-c2ccnc(N)n2)[nH]c1-c1ccc(Cl)cc1Cl | pKi [1]: 7.3; pKi [3]: 7.8; pKi [8]: 7.1; pKi [9]: 5.9; pKi [12]: 6.2; pKi [13]: 7.5; pKi [14]: 6.7; pKi [16]: 9.1; pKi [18]: 6.4; pKi [19]: 6.3
2 | 1.58 µM (active) | 2 µM (active) | 0.398 µM (active) | 0.0501 µM (active) | 0.316 µM (active) | > 2 µM (inactive) | > 2 µM (inactive) | 0.316 µM (active) | 0.0501 µM (active) | 2.51 µM (active) | 1.26 µM (active) | 0.251 µM (active) | 0.398 µM (active) | > 6.31 µM (inactive) | 0.02 µM (active) | 0.00251 µM (active) | 0.794 µM (active) | 0.0126 µM (active) | 0.0398 µM (active) | NC(COc1cncc(-c2ccc3c(c2)C(=Cc2ccco2)C(=O)N3)c1)Cc1c[nH]c2ccccc12 (stereo unspecified) | –

Row | Compound | Ki [1] | Ki [2] | Ki [3] | Ki [4] | Ki [5] | Ki [6] | Ki [7] | Ki [8] | Ki [9] | Ki [10] | Ki [11] | Ki [12] | Ki [13] | Ki [14] | Ki [15] | Ki [16] | Ki [17] | Ki [18] | Ki [19] | other results
3 | Cc1ccc(-n2nc(C(C)(C)C)cc2NC(=O)Nc2ccc(OCCN3CCOCC3)c3ccccc23)cc1 [DORAMAPIMOD] | – | – | > 7.94 µM (inactive) | > 3.98 µM (inactive) | – | > 2 µM (inactive) | 2 µM (active) | – | – | – | > 7.94 µM (inactive) | – | – | – | – | > 2 µM (inactive) | – | > 2 µM (inactive) | > 5.01 µM (inactive) | –

From ChEMBL document CHEMBL1201862, “PubChem BioAssay data set” (2004)
